Assay results reported in ChEMBL document CHEMBL1166009, “A novel and one-pot synthesis of new 1-tosyl pyrrol-2-one derivatives and analysis of carbonic anhydrase inhibitory potencies” (Bioorg Med Chem, 2010).
pIC50, pKi: −log10 of the molar value.

Assays:
Carbonic anhydrase 2 [1] = biological target: T1, Carbonic anhydrase 2 (Homo sapiens, UniProt P00918); experiment: Inhibition of esterase activity of human carbonic anhydrase 2 by spectrophotometry; settings: read-out: I50
Carbonic anhydrase 1 [2] = biological target: T2, Carbonic anhydrase 1 (Homo sapiens, UniProt P00915); experiment: Inhibition of esterase activity of human carbonic anhydrase 1 by spectrophotometry; settings: read-out: I50
T2 sequence (P00915 2-261 limits assumed): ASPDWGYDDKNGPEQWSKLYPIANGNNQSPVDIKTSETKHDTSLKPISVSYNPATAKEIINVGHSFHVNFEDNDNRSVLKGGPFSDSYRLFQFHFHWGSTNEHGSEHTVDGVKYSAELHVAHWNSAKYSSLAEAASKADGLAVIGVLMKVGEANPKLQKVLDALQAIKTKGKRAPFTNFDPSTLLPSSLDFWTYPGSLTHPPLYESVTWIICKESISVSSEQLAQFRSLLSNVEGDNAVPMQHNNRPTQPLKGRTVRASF

Carbonic anhydrase 2 [3] = biological target: T1, Carbonic anhydrase 2
Description: Inhibition of esterase activity of human carbonic anhydrase 2 by Lineweaver-Burke plot analysis

Carbonic anhydrase 1 [4] = biological target: T2, Carbonic anhydrase 1
Description: Inhibition of esterase activity of human carbonic anhydrase 1 by Lineweaver-Burke plot analysis

Cc1ccc(S(=O)(=O)n2cccc2)cc1
pIC50 (Carbonic anhydrase 2 [1]): 4.84 | pIC50 (Carbonic anhydrase 1 [2]): 4.64 | pKi (Carbonic anhydrase 2 [3]): 4.43 | pKi (Carbonic anhydrase 1 [4]): 4.37
